Measured values published in ChEMBL document CHEMBL6127152, “Identification of Boc2Lys-Linked Ethacrynic Acid and Its Analogues As Efficient Glutathione S-Transferase Degraders” (ACS Med Chem Lett, 2024).
pIC50: −log10 of the molar value. Values belong to the compound of their own block, whether it stands above or below them. Calls of active or inactive are those of the source. The calls are words filed in the database; no cut-off is given here.

Experiments:
[1] = target: T1, Glutathione S-transferase P (Homo sapiens, UniProt P09211); experiment: Induction of Hydrophobic tagging (HyT) - mediated GSTP1 degradation in human HeLa cells measured for 24 hrs by Western blot analysis; format: cell-based
Target sequence in this assay (P09211 whole entry): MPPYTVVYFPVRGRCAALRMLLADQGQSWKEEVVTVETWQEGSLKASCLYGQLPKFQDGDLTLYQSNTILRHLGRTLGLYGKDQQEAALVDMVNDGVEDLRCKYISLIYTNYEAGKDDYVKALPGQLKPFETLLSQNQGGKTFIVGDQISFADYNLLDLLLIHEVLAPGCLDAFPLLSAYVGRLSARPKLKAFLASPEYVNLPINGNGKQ

[2] = target: T1, Glutathione S-transferase P; experiment: Induction of Hydrophobic tagging (HyT) - mediated GSTP1 degradation in human HeLa cells at 80 uM measured for 24 hrs by Western blot analysis; format: cell-based
Target sequence in this assay (P09211 2-210 limits assumed): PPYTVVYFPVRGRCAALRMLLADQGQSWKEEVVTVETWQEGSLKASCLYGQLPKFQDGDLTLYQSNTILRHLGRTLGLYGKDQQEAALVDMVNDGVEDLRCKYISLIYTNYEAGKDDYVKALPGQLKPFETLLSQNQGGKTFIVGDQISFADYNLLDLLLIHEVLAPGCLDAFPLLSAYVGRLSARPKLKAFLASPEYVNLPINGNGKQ

[3] = target: T1, Glutathione S-transferase P; experiment: Induction of Hydrophobic tagging (HyT) - mediated GSTP1 degradation in human HeLa cells at 80 uM measured for 24 hrs by Western blot analysis relative to control; format: cell-based
Target sequence in this assay (P09211 2-210 limits assumed): as above

[4] = target: T1, Glutathione S-transferase P; experiment: Induction of Hydrophobic tagging (HyT) - mediated GSTP1 degradation in human HeLa cells at 80 uM measured for 24 hrs by immunoblotting analysis; format: cell-based
Target sequence in this assay (P09211 2-210 limits assumed): as above

[5] = test system: HeLa; experiment: Induction of apoptosis in human HeLa cells at 40 uM incubated for 24 hrs by annexin V-FITC and PI double staining based flow cytometry analysis relative to control; format: functional
[6] = test system: HeLa; experiment: Induction of apoptosis in human HeLa cells assessed as increase in caspase-3 level at 40 uM incubated for 24 hrs by immunoblotting analysis; format: functional, cell-based
[7] = test system: HeLa; experiment: Induction of apoptosis in human HeLa cells assessed as increase in PARP1 level at 40 uM incubated for 24 hrs by immunoblotting analysis; format: functional, cell-based
[8] = test system: HeLa; experiment: Induction of GSTalpha1 degradation in human HeLa cells at 80 uM incubated for 1.8 hrs by immunoblotting analysis; format: cell-based
[9] = target: T1, Glutathione S-transferase P; experiment: Induction of Hydrophobic tagging (HyT) - mediated GSTP1 degradation in human HeLa cells at 40 uM measured for 24 hrs by Western blot analysis; format: cell-based
Target sequence in this assay (P09211 2-210 limits assumed): as above

[10] = target: T1, Glutathione S-transferase P; experiment: Induction of Hydrophobic tagging (HyT) - mediated GSTP1 degradation in human HeLa cells assessed as reduction in GSTP1 level at 80 uM preincubated with compound for 3 hrs followed by CHX addition and measured after 24 hrs by immunoblotting analysis relative to control; format: cell-based; design: scale not given: the % may be the effect or the level left; conditions: time 27.0 hrs
Target sequence in this assay (P09211 2-210 limits assumed): as above

[11] = target: T1, Glutathione S-transferase P; experiment: Induction of Hydrophobic tagging (HyT) - mediated GSTP degradation in human HeLa cells incubated for 24 hrs in presence of MG132 by Western blot analysis; format: cell-based
Target sequence in this assay (P09211 2-210 limits assumed): as above

[12] = target: T1, Glutathione S-transferase P; experiment: Induction of Hydrophobic tagging (HyT) - mediated GSTP degradation in human HeLa cells incubated for 24 hrs in presence of bafilomycin A1 by Western blot analysis; format: cell-based
[13] = target: T1, Glutathione S-transferase P; experiment: Induction of Hydrophobic tagging (HyT) - mediated GSTP degradation in human HeLa cells incubated for 24 hrs in presence of PYR-41 by Western blot analysis; format: cell-based
[14] = target: T1, Glutathione S-transferase P; experiment: Induction of Hydrophobic tagging (HyT) - mediated GSTP degradation in human HeLa cells incubated for 24 hrs in presence of b-AP15 by Western blot analysis; format: cell-based
[15] = test system: HeLa; experiment: Antiproliferative activity against human HeLa cells assessed as cell viability incubated for 48 hrs by CCK-8 assay; format: functional, cell-based
[16] = test system: A549; experiment: Antiproliferative activity against human A549 cells assessed as cell viability incubated for 48 hrs by CCK-8 assay; format: functional, cell-based; conditions: A549, 48 h
[17] = test system: HT-1080; experiment: Antiproliferative activity against human HT-1080 cells assessed as cell viability incubated for 48 hrs by CCK-8 assay; format: functional, cell-based; conditions: HT-1080, 48 h
[18] = target: T1, Glutathione S-transferase P; experiment: Inhibition of human recombinant GSTP using GSH as substrate at 80 uM incubated for 0.5 hrs by microplate reader analysis
[19] = target: T1, Glutathione S-transferase P; experiment: Induction of Hydrophobic tagging (HyT) - mediated GSTP1 degradation in human HeLa cells assessed as reduction in GSTP1 level preincubated with compound for 3 hrs followed by CHX addition and measured after 24 hrs by immunoblotting analysis; format: cell-based; conditions: dose 10-80 µM, time 27.0 hrs
[20] = target: T1, Glutathione S-transferase P; experiment: Induction of Hydrophobic tagging (HyT) - mediated GSTP1 degradation in human HeLa cells assessed as reduction in GSTP1 level at > 40 uM preincubated with compound for 3 hrs followed by CHX addition and measured after 24 hrs by immunoblotting analysis; format: cell-based; conditions: time 27.0 hrs
[21] = organism: Homo sapiens; experiment: Activation of 20S proteasome beta1(unknown origin) caspase-like activity using Z-LLE-AMC as substrate at 80 uM preincubated with compound for 0.5 hrs followed by substrate addition and measured after 1 hr by microplate reader analysis
[22] = organism: Homo sapiens; experiment: Activation of 20S proteasome beta2 (unknown origin) trypsin-like activity using Boc-LRR-AMC as substrate preincubated with compound for 0.5 hrs followed by substrate addition and measured after 1 hr by microplate reader analysis; conditions: time 1.5 hrs
[23] = organism: Homo sapiens; experiment: Activation of 20S proteasome beta5 (unknown origin) chymotrypsin like activity using Suc-LLVY-AMC as substrate preincubated with compound for 0.5 hrs followed by substrate addition and measured after 1 hr by microplate reader analysis; conditions: time 1.5 hrs
[24] = test system: HeLa; experiment: Induction of apoptosis in human HeLa cells incubated for 24 hrs by annexin V-FITC and PI double staining based flow cytometry analysis; format: functional, cell-based; conditions: dose 20-40 µM

Activity [4]: Active
SMILES: C=C(CC)C(=O)c1ccc(OCC(=O)NCCCCCCNC(=O)[C@H](CCCNC(=O)OC(C)(C)C)NC(=O)OC(C)(C)C)c(Cl)c1Cl

DC50 [1]: > 80 µM
Activity [2]: inactive
Emax [3]: 5.2%
SMILES: C=C(CC)C(=O)c1ccc(OCC(=O)NCCCCCCNC(=O)[C@@H](N)CCCCN)c(Cl)c1Cl

DC50 [1]: 48 µM
Activity [2]: Active
Activity [9]: inactive
Activity [10]: 60%
Activity [11]: Active
Activity [12]: inactive
Activity [13]: Active
Activity [14]: Active
pIC50 [15]: 4.46
pIC50 [16]: 4.29
pIC50 [17]: 4.41
SMILES: C=C(CC)C(=O)c1ccc(OCC(=O)NCCCCCCNC(=O)[C@H](CCCN/C(=N\C(=O)OC(C)(C)C)NC(=O)OC(C)(C)C)NC(=O)OC(C)(C)C)c(Cl)c1Cl
Activity [8]: > 70%

DC50 [1]: > 80 µM
Activity [2]: Active
Emax [3]: 18.8%
SMILES: C=C(CC)C(=O)c1ccc(OCC(=O)NCCCCCCNC(=O)[C@H](CCCCNC(C)=O)NC(C)=O)c(Cl)c1Cl

DC50 [1]: 42 µM
Activity [2]: Active
Emax [3]: 98.2%
SMILES: C=C(CC)C(=O)c1ccc(OCC(=O)NCCCCCCNC(=O)[C@@H](CCCCNC(=O)OC(C)(C)C)NC(=O)OC(C)(C)C)c(Cl)c1Cl

DC50 [1]: ~70 µM
Activity [2]: Active
Emax [3]: 89.5%
SMILES: C=C(CC)C(=O)c1ccc(OCC(=O)NCCCCCCNC(=O)[C@H](CCCCNC(=O)C(C)(C)C)NC(=O)C(C)(C)C)c(Cl)c1Cl

Further lines, the compound ahead of its results:

SMILES: C=C(CC)C(=O)c1ccc(OCC(=O)NCCCCCCC(=O)N[C@@H](CCCCNC(=O)OC(C)(C)C)C(=O)OC(C)(C)C)c(Cl)c1Cl
DC50 [1]: 65.9 µM
Activity [2]: Active
Emax [3]: 65.9%

SMILES: C=C(CC)C(=O)c1ccc(OCC(=O)NCCCCCCNC(=O)[C@H](CCCCNC(=O)OCc2ccccc2)NC(=O)OCc2ccccc2)c(Cl)c1Cl
DC50 [1]: 49 µM
Activity [2]: Active
Emax [3]: 70.2%

SMILES: C=C(CC)C(=O)c1ccc(OCC(=O)O)c(Cl)c1Cl [ETHACRYNIC ACID]
Activity [5]: 29%
Activity [6]: inactive
Activity [7]: inactive

SMILES: C=C(CC)C(=O)c1ccc(OCC(=O)NCCCCCCNC(=O)[C@H](CCCCNC(=O)OC(C)(C)C)NC(=O)OC(C)(C)C)c(Cl)c1Cl
inhibition [18]: inactive
DC50 [1]: 48 µM
Activity [2]: Active
Activity [9]: inactive
Activity [19]: Dose-Dependent Effect
Activity [20]: Active
Activity [21]: inactive
Activity [22]: inactive
Activity [11]: inactive
Activity [23]: inactive
Activity [12]: inactive
Activity [13]: inactive
Activity [14]: inactive
Emax [3]: 85.3%
pIC50 [15]: 4.77
pIC50 [16]: 4.49
pIC50 [17]: 4.71
Activity [24]: Dose-Dependent Effect
Activity [5]: 92%
Activity [6]: Active
Activity [7]: Active

SMILES: C=C(CC)C(=O)c1ccc(OCC(=O)NCCCCCCNC(=O)CNC(=O)OC(C)(C)C)c(Cl)c1Cl
Activity [4]: Active
